In ChEMBL document CHEMBL5528082 (J Med Chem, 2024):
Converted amounts (≈) assume the structure as drawn.

Experiments:
Staphylococcus aureus [1] = assay: Antibacterial activity against Staphylococcus aureus ATCC 25923 incubated for 24 hrs by CLSI based broth microdilution assay; type: functional
Staphylococcus aureus [2] = assay: Antibacterial activity against Staphylococcus aureus USA 300 incubated for 24 hrs by CLSI based broth microdilution assay; type: functional
Staphylococcus aureus [3] = assay: Antibacterial activity against TMP-resistant Staphylococcus aureus BHKS 227 incubated for 24 hrs by CLSI based broth microdilution assay; type: functional
Staphylococcus aureus [4] = assay: Antibacterial activity against TMP-resistant Staphylococcus aureus BHKS 721 incubated for 24 hrs by CLSI based broth microdilution assay; type: functional
Staphylococcus aureus [5] = assay: Antibacterial activity against TMP-resistant Staphylococcus aureus BHKS 723 incubated for 24 hrs by CLSI based broth microdilution assay; type: functional
[6] = Cytotoxicity against HEK293 cells assessed as inhibition rate of cell growth at 100 uM incubated for 24 hrs by CCK8 assay relative to control; type: toxicity, cell-based; conditions: human
[7] = Cytotoxicity against human NCM460 cells assessed as inhibition rate of cell growth at 100 uM incubated for 24 hrs by CCK8 assay relative to control; type: toxicity, cell-based
Dihydrofolate reductase = Dihydrofolate reductase (Staphylococcus aureus, UniProt P0A017); assay: Inhibition of Staphylococcus aureus DHFR expressed in Escherichia coli BL21 (DE3) using DHF as substrate preincubated for 10 mins followed by substrate addition measured for 10 mins in presence of NADPH by spectrophotometry
[8] = tested on: Dihydrofolate reductase (Staphylococcus aureus); conditions: dose 100.0 nM

Sequence of Dihydrofolate reductase (P0A017 whole entry): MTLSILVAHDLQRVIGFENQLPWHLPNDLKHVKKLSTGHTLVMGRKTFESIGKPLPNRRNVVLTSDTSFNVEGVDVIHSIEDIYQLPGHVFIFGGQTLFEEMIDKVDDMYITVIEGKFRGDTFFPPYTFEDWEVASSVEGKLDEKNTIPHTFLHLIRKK

| SMILES | MIC (Staphylococcus aureus [1]) [µg/mL] | MIC (Staphylococcus aureus [2]) [µg/mL] | MIC (Staphylococcus aureus [3]) [µg/mL] | MIC (Staphylococcus aureus [4]) [µg/mL] | MIC (Staphylococcus aureus [5]) [µg/mL] | inhibition at 24 h, 100 µM [6] [%] | inhibition at 24 h, 100 µM [7] [%] | IC50 (Dihydrofolate reductase) [nM] | inhibition [8] [%] |
| --- | --- | --- | --- | --- | --- | --- | --- | --- | --- |
| COc1cc(C(C)C)c(Oc2cnc(N)nc2N)cc1-c1ccc(C(C)(C)C)cc1 | 0.5 (≈ 1.23 µM) | 0.5 (≈ 1.23 µM) | 4 (≈ 9.84 µM) | 4 (≈ 9.84 µM) | 4 (≈ 9.84 µM) | 20.7 | 65.6 | 37.9 | 54.3 |
| COc1cc(C(C)C)c(Oc2cnc(N)nc2N)cc1-c1cc(F)cc(F)c1 | 1 (≈ 2.59 µM) | 0.5 (≈ 1.29 µM) | 4 (≈ 10.4 µM) | 32 (≈ 82.8 µM) | 32 (≈ 82.8 µM) | 45.2 | 52.1 | 41.8 | > 100 |
| COc1ccc(Oc2cnc(N)nc2N)cc1-c1ccc(C(F)(F)F)cc1 | 0.031 (≈ 0.0824 µM) | 0.016 (≈ 0.0425 µM) | 4 (≈ 10.6 µM) | 4 (≈ 10.6 µM) | 4 (≈ 10.6 µM) | 42.3 | 68.3 | 8.29 | > 100 |
| COc1cc(C(C)C)c(Oc2cnc(N)nc2N)cc1-c1cccc(C(F)(F)F)c1 | 1 (≈ 2.39 µM) | 1 (≈ 2.39 µM) | 4 (≈ 9.56 µM) | 16 (≈ 38.2 µM) | 16 (≈ 38.2 µM) | 51.5 | 74.6 | 239 | 82.9 |
| CC(C)c1cc(OCC2CCCC2)c(I)cc1Oc1cnc(N)nc1N | 0.125 (≈ 0.267 µM) | 0.125 (≈ 0.267 µM) | 2 (≈ 4.27 µM) | 8 (≈ 17.1 µM) | 4 (≈ 8.54 µM) | 64 | 35.2 | 10.2 | 76.4 |
| CCCCOc1cc(C(C)C)c(Oc2cnc(N)nc2N)cc1I | 0.125 (≈ 0.283 µM) | 0.125 (≈ 0.283 µM) | 1 (≈ 2.26 µM) | 4 (≈ 9.04 µM) | 8 (≈ 18.1 µM) | 42.2 | 72.9 | 36.7 | 50.8 |
| COc1cc(C(C)C)c(Oc2cnc(N)nc2N)cc1-c1ccc(C(F)(F)F)cc1 | 0.5 (≈ 1.19 µM) | 0.5 (≈ 1.19 µM) | 2 (≈ 4.78 µM) | 16 (≈ 38.2 µM) | 16 (≈ 38.2 µM) | 27.4 | 65 | 60.2 | 68.1 |
| COc1cc(C(C)C)c(Oc2cnc(N)nc2N)cc1-c1ccc(C)cc1 | 0.5 (≈ 1.37 µM) | 0.5 (≈ 1.37 µM) | 2 (≈ 5.49 µM) | 16 (≈ 43.9 µM) | 16 (≈ 43.9 µM) | 2.04 | 55.5 | 38.7 | 9.88 |
| CCCCCOc1cc(C(C)C)c(Oc2cnc(N)nc2N)cc1I | 0.125 (≈ 0.274 µM) | 0.125 (≈ 0.274 µM) | 2 (≈ 4.38 µM) | 4 (≈ 8.77 µM) | 4 (≈ 8.77 µM) | 64.9 | 41.5 | 8.36 | 45.8 |
| COc1cc(C(C)C)c(Oc2cnc(N)nc2N)cc1-c1ccc(Cl)cc1 | 0.25 (≈ 0.65 µM) | 0.25 (≈ 0.65 µM) | 1 (≈ 2.6 µM) | 16 (≈ 41.6 µM) | 16 (≈ 41.6 µM) | 16.4 | 69.1 | 66.6 | 94.3 |
| COc1cc(C(C)C)c(Oc2cnc(N)nc2N)cc1-c1ccc2ccccc2c1 | 0.5 (≈ 1.25 µM) | 0.25 (≈ 0.624 µM) | 1 (≈ 2.5 µM) | > 32 | > 32 | 13.5 | 67.6 | 148 | 80.8 |
| COc1cc(C(C)C)c(Oc2cnc(N)nc2N)cc1C1CC1 | 1 (≈ 3.18 µM) | 0.5 (≈ 1.59 µM) | 4 (≈ 12.7 µM) | 16 (≈ 50.9 µM) | 32 (≈ 102 µM) | 0.06 | 4.06 | 27.8 | 35.3 |
| COc1cc(C(C)C)c(Oc2cnc(N)nc2N)cc1-c1cc(Cl)cc(Cl)c1 | 0.125 (≈ 0.298 µM) | 0.125 (≈ 0.298 µM) | 1 (≈ 2.38 µM) | 4 (≈ 9.54 µM) | 4 (≈ 9.54 µM) | 39.7 | 66.2 | 15.4 | 78.6 |
